Patent publication US6878747B2, “Systemic formulations containing beta-carotene and derivatives thereof” (priority 2001, dated 2005)

Legend:
[1] = tested on: right calf of a health professional; details: in vivo
From the text: Retinol, retinal, and retinoic acid, were each soluabilized in THF as described above and used as follows. A fingertip amount of each (e.g. retinoic acid, retinol retinal?) was rubbed into the right calf of a health professional.

[2] = Maximum concentration of beta-carotene dissolving in THF; format: physicochemical
Protocol: The formulation broadly comprises from about 0.1 to about 9.3 mg and preferably from about 1 to about 6 mg of beta-carotene per ml of tetrahydrofuran. The maximum concentration of beta-carotene capable of dissolving in THF is 9.3 mg/ml. Solubility problems arise above this concentration of beta-carotene. Beta-carotene and derivatives thereof for use in the present invention is commercially available from Sigma Chemical Co. or Fisher Scientific Co.

[3] = tested on: human hepatocytes; test: Absorption of beta-carotene in THF in human hepatocytes; format: in vitro ADME; details: 10 μM beta-carotene, 0.05% THF, 24 hours incubation; three samples
Protocol: The following experiment was performed three times to determine the absorption of beta-carotene in THF in human hepatocytes.
Beta-carotene was dissolved in a solution containing 99.9% (w/w) tetrahydrofuran (THF) with 0.025% (w/w) butylated hydroxytoluene (BHT) to obtain a 2000× (20 mM) stock solution. While the incubation media was rapidly stirred, the stock solution was added to create a final 1× dosing solution containing 10 μM beta-carotene and 0.05% THF.
Hepatocytes were isolated and cryopreserved according to the methods described in Li, A. P., et al., Isolation and culturing of hepatocytes from human liver, J. Tiss. Culture Methods, 14:139-146(1992); Li rat and human hepatocytes as multicellular spheroids, In Vitro Cell. Dev. Biol., 28A:673-677 (1992); and Loretz, L. J. et al., Promutagen activation by freshly isolated and cryopreserved rat hepatocytes, Environ. Mol. Mutag., 12(3):335-341. Portions of liver tissue were processed into hepatocytes by collagenase-based digestion of connective tissue, followed by manual and mechanical separation and washing with media. Isolated hepatocytes were counted to determine yield, and viability was measured using Trypan Blue™ exclusion. The viability of the cells was 90%. The cells were resuspended in the plating media described above at a density of 0.7×10^6 cells/mL. […]

[4] = tested on: human melanoma cell cultures; test: Beta-carotene treatment of melanoma cell cultures, Example 9; format: cell-based; details: beta-carotene 33 mg/ml in medium, 0.5% THF, 7 days
Protocol: Experiment: Beta-carotene in tetrahydrofuran (THF) was added to McCoy's 5A modified medium at a concentration of 33 mg/ml with a final concentration of 0.5% THF. This supplemented medium was added to Leighton tubes (containing melanoma cells) after removal of un-supplemented medium and was replaced every 2 days during the 7 day experimental period. At the end of 7 days, the cultures were fixed in methanol and the cover slips were Giemsa stained.

[5] = tested on: human melanoma cell cultures; test: Guanosine then beta-carotene treatment of melanoma cell cultures, Example 10; format: cell-based; details: 7 days
Protocol: Guanosine was added to McCoy's 5A modified medium at a concentration of 3 mg/ml. This supplemented medium was added to Leighton tubes after removal of an non-supplemented medium and was replaced every 2 days for 7 days. Beta-carotene in THF was added to McCoy's 5A modified medium at a concentration of 33 mg/ml with a final concentration of 0.5% THF. This supplemented medium was added to the Leighton tubes after removal of guanosine supplemented medium and was replaced every 2 days for an additional 7 day experimental period. At the end of 14 days, the cultures were fixed in methanol and the cover slips were Giemsa stained.

[6] = tested on: intra-abdominal sepsis in a rat model; details: dietary supplementation; beta-carotene 90 mg/kg; cited from earlier work
[7] = Soluabilization in THF, Example 11; format: physicochemical; details: hand shaking, results approximate
Protocol: All experimental substances (retinol, retinoic acid, 9-cis retinoic acid, retinal) were from Sigma (St. Louis, Mo.). All experimental substances were provided in sealed ampules.
The solvent, Tetrahydrofuran (stabilized with BHT) was also from Sigma.^1
^1 In the soluabilization experiments described in Examples 11 and 12 a small amount of yellow material appeared on the bottom of the stopper. In addition, since THF is somewhat volatile, the results are approximate.
2 ml shell vials from Electron Microscopy Sciences (Fort Washington, Pa.) Hamilton glass syringes (100 microliter, 250 microliter, 500 microliter) were from Fisher Scientific (Pittsburgh, Pa.). Silicone stoppers and other glassware were also from Fisher Scientific.
All of a retinoic acid ampule (100 mg ) was poured into a 2 ml shell vial and stoppered with a silicon stopper. Using a 500 microliter Hamilton syringe, 500 microliters of THF was added to the vial and then shaken by hand.
a. 25 mg ampule of retinol was poured into a 2 ml shell vial and it soluabilized completely in 250 microliters of THF.
b. 100 mg ampule of retinol was poured into a vial and it soluabilized completely in 0.5 ml of THF.
c. 100 mg ampule of retinol was poured into a vial and it soluabilized completely in 0.1 ml THF.
20 microliters THF from a Hamilton syringe was added to an ampule containing 1 mg of 9-cis retinoic acid. It appeared that complete soluability was achieved.
A 100 mg ampule of retinal was emptied into a 2 ml shell vial, and was completely soluabilized with hand shaking in 100 microliters of THF.

[8] = Soluabilization in THF, Example 12; format: physicochemical; details: results approximate
Protocol: All materials and sources were the same as in Example 11.The only additions were the use of 4.3 ml glass shell vials from Electron Microscopy Sciences, 10 ml glass centrifuge tubes from Fisher, and a 1.25 ml glass Hamilton syringe from Fisher.
All of a retinoic acid (1 gram) ampule was poured into a 10 ml glass centrifuge tube and stoppered with a silicon stopper. 7 ml of THF was added to the tube and then shaken by hand. This was performed twice.
All of a 1 gram ampule was poured into a 4.3 ml shell vial and stoppered with a silicon stopper. Using a 1.25 ml Hamilton syringe, 1.0 ml of THF was added to the vial and then shaken by hand. It soluabilized completely.
10 microliters THF from a Hamilton syringe was added to a ampule containing 1 mg of 9-cis retinoic acid. It appeared that complete soluability was achieved.
A 500 mg ampule of retinal was emptied into a 2 ml shell vial, and was completely soluabilized with hand shaking in 0.5 ml of THF.

[9] = tested on: human with male pattern baldness; test: Topical use in human male pattern baldness; format: in vivo; details: in THF, applied daily to thinning vertex; within 4 months
From the text: A human with male pattern baldness applies retinol in THF daily to their thinning vertex.

[10] = beta-carotene 33 mg/ml, 0.5% THF, after 7 days of guanosine 3 mg/ml

## CC1=C(/C=C/C(C)=C/C=C/C(C)=C/C(=O)O)C(C)(C)CCC1 [retinoic acid]
[1]
  signs of toxicity, topically or systemically: no signs of toxicity

## CC1=C(/C=C/C(C)=C/C=C/C(C)=C/C=C/C=C(C)/C=C/C=C(C)/C=C/C2=C(C)CCCC2(C)C)C(C)(C)CCC1 [beta-carotene]
[2]
  maximum concentration of beta-carotene capable of dissolving in THF: 9.3 mg/mL
[3]
  detection of beta-carotene in the cells (dark regions, light microscope): presence of beta-carotene in the cells
[4]
  cell death in culture compared with control cultures: a large segment of the starting population died
[4]; Giemsa stained
  morphology of the remaining cells: most had triangular morphology and a large nucleus, consistent with neural cells, or were fusiform in shape
[5]; [10]
  cell death in culture: did not cause the extensive cell death
  morphology of the surviving cells: most of those had a neuronal morphology
[6]
  protective effect on intra-abdominal sepsis: lesser effect

## CC1=C(/C=C/C(C)=C/C=C/C(C)=C/C=O)C(C)(C)CCC1 [retinal]
[7]
  soluability in THF: about 1 gm/ml THF
[8]
  soluability in THF: about 1 gm/ml THF
[1]
  signs of toxicity, topically or systemically: no signs of toxicity

## CC1=C(/C=C/C(C)=C\C=C\C(C)=C\C(=O)O)C(C)(C)CCC1 [9-cis retinoic acid]
[7]
  soluability in THF: at least 50 mg/ml THF
[8]
  soluability in THF: about 100 mg/ml THF

## Vitamin A
[6]
  protective effect on intra-abdominal sepsis: significant protective effect

## CC1=C(/C=C/C(C)=C/C=C/C(C)=C/CO)C(C)(C)CCC1 [retinol]
[7]
  soluability in THF: about 1 gm/ml THF
[8]
  soluability in THF: about 1 gm/ml THF
[1]
  signs of toxicity, topically or systemically: no signs of toxicity
[9]
  new hair growth (hair counts, investigator and patient assessment): significant new hair growth

## Nc1nc2c(ncn2[C@@H]2O[C@H](CO)[C@@H](O)[C@H]2O)c(=O)[nH]1 [guanosine, Guanosine]
[5]; guanosine 3 mg/ml in medium
  phenotypic changes in the overall cell population: many cells with an increased nuclear to cytoplasmic ratio
